Holding throughout (type): cell-based, mouse
In assay [1] the test system is differentiated N1E-115 cells. The assay can be described thus: FRAP of mCherry-Tau (Tau-MT interaction). As to the method:
(§1) Cell culture—Mouse neuroblastoma NIE-115 cells were maintained in Dulbecco's modified Eagle's medium, 10% fetal bovine serum, 2 mM glutamine and 100 U ml—1 penicillin, […] ml—1 streptomycin (Biological Industries, Beit Haemek, Israel). The cells were incubated in 95% air/5% CO2 in a humidified incubator at 37° C.
(§2) Cell differentiation and co-transfection of overexpression plasmids—Cultured NIE-115 cells were plated on 35 mm dishes (81156, 60μ-Dish, Ibidi, Martinsried, Germany) at a concentration of 1.25×10^4 cells per dish and then were differentiated with reduced fetal bovine serum (2%) and DMSO (1.25%) containing medium for 5 days before transfection. 48 hrs before experiments N1E-115 cells were co-transfected with 1 μg EB3-RFP or mCherry-Tau (3R) plasmid with or without 2 μg of plasmids, coding to GFP conjugated to full-length human ADNP, or ADNP carried mutations. 1:3 ratios between total amount of transfected DNA and transfection reagent were used according to manufacture guidance (Lipofectamine2000, Thermo Fisher Scientific, Waltham, MA, USA) in all subsequent experiments.
Fluorescence recovery after photobleaching (FRAP)—Differentiated NIE-115 cells were transfected with mCherry-Tau with or without GFP-conjugated to full-length ADNP or mutated ADNP, and imaged 48 hrs after transfection. An ROI for photobleaching was drowned in the proximal cell branches. mCherry-Tau was bleached with a […], and fluorescence recovery was collected within wavelengths of 610-650 nm. 80 images were taken every 0.74 sec immediately after bleaching. After FRAP imaging all samples were also treated with NAP in final concentrations of 10^−12 M, and after 4 hrs time-lapse imaging was done again under the same conditions. FRAP imaging for assessment difference between NAP and SKIP (SEQ ID NO: 21) activity was performed after an hour of ZnCl2 treatment (400 μM final concentration; Sigma, Rehovot, Israel) with or without NAP/SKIP (10^−12 M final concentration). Fluorescence signals were quantified with Fiji, obtained data were normalized with easyFRAP [82, 83] and FRAP recovery curves were fitted by a one-phase exponential association function by GraphPad Prism6 (GraphPad Software, Inc., La Jolla, CA, USA) while samples with R^2<0.9 were excluded.
Next, the effect of full-length/truncated ADNP forms with or without NAP treatment on Tau-MT interaction was examined by fluorescence recovery after photobleaching (FRAP) (FIGS. 8A-C). FRAP was performed with mCherry-tagged Tau protein (FIG. 8A). […] Therefore, the immobile mCherry-Tau fraction reflects the rate of Tau association with MTs.

Assay [2] has as its system differentiated N1E-115 cells. In words: Live imaging of EB3 comet-like structures (MT dynamics). The settings on record: 10^−12 M, 4 hrs. How it is done: as §1, §2
Live Imaging—48 hrs after transfection, differentiated NIE-115 cells (expressing EB3-RFP with or without GFP-conjugated to full-length ADNP or mutated ADNP) were incubated at 37° C. with a 5% CO2/95% air mixture in a thermostatic chamber placed on the stage of a Leica TCS SP5 confocal microscope (objective 100× (PL Apo) oil immersion, NA 1.4). Time-lapse images were automatically captured 3 sec during 1 min, using the Leica LAS AF software. After imaging all samples were also treated with NAP (SEQ ID NO: 2) or SKIP (SEQ ID NO: 21) in final concentrations of 10^−12 M, and after 4 hrs time-lapse imaging was done again under the same conditions. Data was collected and analyzed by Imaris software.
To evaluate the effect of ADNP truncated proteins on MT dynamics time-lapse imaging of EB3 comet-like structures formed by RFP-tagged EB3 proteins that bind to MT plus-ends was performed. Two parameters of EB3 activity were used to assess MT dynamics—track length and track speed of EB3 comets, which reflect the length of freshly growing MTs and the speed of MT assembly, respectively. Furthermore, the present inventors aimed to determine whether NAP (10^−12 M for 4 hrs) could prevent the deleterious effect of ADNP mutations.

Another assay deals with N1E-115 cells. The assay can be described thus: Polymerized vs. soluble tubulin assay. To be noted: zinc 400 μM, 4 h, peptide 10^−12 M. As to the method:
Polymerized vs. soluble tubulin assay—To quantify tubulin polymerization and Tau-MT association, a simple assay was performed as previously described. The cells grown to confluence in six-well plates were washed with MT buffer (80 mM PIPES pH 6.8, 1 mM MgCl^2, 2 mM EGTA, 5% Glycerol) and lysed at room temperature for 5 min through centrifugation (300 g), with 150 μl of MT buffer with 0.5% Triton X-100 to extract soluble (cytosolic) tubulin (S). The pelleted cells were rinsed once again with an equal volume of modified RIPA lysis buffer (50 mM Tris-HCL pH 7.4, 150 mM NaCl, 2 mM EGTA, 1% Triton X-100, 0.1% SDS, 0.1% sodium Deoxycholate) to collect the polymerized (cytoskeletal) tubulin (P). The cytosolic and cytoskeletal fractions were each mixed with sample buffer and heated at 95° C. for 5 min. An equal volume of each fraction was analyzed by immunoblotting with Tau, tubulin and actin antibodies, and the results following ECL development were quantified by densitometry (GelQuant.NET software provided by biochemlabsolutions(dot)com).
It is known that in the presence of extracellular zinc NAP protects MT against degradation by promoting Tau binding to the MT shaft. Polymerized vs. soluble tubulin assay was effected to compare protective activities of NAP and SKIP against MT degradation and Tau-MT dissociation (FIGS. 11F-G). After treatments with zinc (400 μM, 4 h) with and without NAP or SKIP (10^−12 M, 4 h) the cellular-tubulin pool was separated into polymerized and soluble tubulin fractions. The amount of Tau, tubulin, and actin was identified by immunoblotting (FIG. 11F), followed by densitometric quantification (FIG. 11G).

The text below walks through data of patent publication US20250032580A1, “USE OF ADNF POLYPEPTIDES IN THERAPY” (RAMOT AT TEL-AVIV UNIVERSITY LTD., priority 2021, published 2025).

`[Cl-].[Cl-].[Zn+2]` [zinc, ZnCl2, reference compound]: in assay [1] (400 μM, 1 h), the “Tau immobile fraction in comparison to non-treated control” value is on record as “significantly attenuated”.

As for SKIP, the “Difference between effects of NAP and SKIP on EB3 track length and speed” value in assay [2] was “no significant differences”. Moreover, in assay [2] (no ADNP plasmid), the “EB3 track length and speed compared to non-treated control” value was “increased EB3 track length and speed”. For the same molecule, in the assay with N1E-115 cells, the “Protection against Tau dissociation from MTs” value is reported as “only NAP exhibited protection” and the “Protection of polymerized tubulin against zinc-induced decay” value is reported as “protected against zinc-induced decay”. Further, in assay [1] (summary of results), the “Efficacy in terms of MT-Tau interactions, as compared with NAP” value was “reduced efficacy”. Further, the “Tau immobile fraction under zinc” value in assay [1] (zinc 400 μM, 1 h, together with peptide 10^−12 M) is recorded as “prevented zinc adverse effect”.
